Assay results from PubChem BioAssay AID256 (DTP/NCI, 2004).
Values joined by “and” are separate entries in the source; they are usually repeats but may differ in a detail not shown here. Identical values can stand only once. Inconclusive results and toxic doses are left out. How the source made its calls: active means survival T/C of 150% or more; inactive means T/C below 125% in these data.

Tested on: CD2F1 mice, L1210 leukemia ip, survival T/C
Assay: NCI In Vivo Anticancer Drug Screen. Data for tumor model L1210 Leukemia (intraperitoneal) in CD2F1 (CDF1) mice
Details: higher = longer survival
Summary of the method: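 Each value reflects a quotient of treated over vehicle control outcomes in mice with a transplanted tumor.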

[1] = endpoint: mean survival time, dose: 50.0 mg/kg/injection, schedule: Q01DX009 (ip), vehicle: saline
[2] = endpoint: mean survival time, dose: 100.0 mg/kg/injection, schedule: Q04DX003 (ip), vehicle: saline with Tween-80
[3] = endpoint: mean survival time, dose: 100.0 mg/kg/injection, schedule: Q01DX009 (ip), vehicle: saline with Tween-80
[4] = endpoint: mean survival time, dose: 400.0 mg/kg/injection, schedule: Q01DX009 (ip), vehicle: saline with Tween-80
[5] = endpoint: mean survival time, dose: 100.0 mg/kg/injection, schedule: Q01DX009 (ip), vehicle: saline
[6] = endpoint: mean survival time, dose: 50.0 mg/kg/injection, schedule: Q04DX003 (ip), vehicle: saline
[7] = endpoint: mean survival time, dose: 100.0 mg/kg/injection, schedule: Q01DX001 (ip), vehicle: saline
[8] = endpoint: mean survival time, dose: 100.0 mg/kg/injection, schedule: Q04DX003 (ip), vehicle: saline
[9] = endpoint: mean survival time, dose: 100.0 mg/kg/injection, schedule: Q04DX002 (ip), vehicle: saline with Tween-80
[10] = endpoint: mean survival time, dose: 200.0 mg/kg/injection, schedule: Q04DX002 (ip), vehicle: saline with Tween-80
[11] = endpoint: mean survival time, dose: 400.0 mg/kg/injection, schedule: Q04DX002 (ip), vehicle: saline with Tween-80

Measured: T/C

CCOC(=O)N(N=O)c1ccc2c(c1)C(=O)c1ccccc1-2
inactive: endpoint: mean survival time, dose: 100.0 mg/kg/injection, schedule: Q01DX001 (ip), vehicle: carboxymethylcellulose (CMC) 103 % of control | endpoint: mean survival time, dose: 200.0 mg/kg/injection, schedule: Q01DX001 (ip), vehicle: carboxymethylcellulose (CMC) 97 % of control | endpoint: mean survival time, dose: 400.0 mg/kg/injection, schedule: Q01DX001 (ip), vehicle: carboxymethylcellulose (CMC) 94 % of control

CC[CH2][Sn]([CH2]CC)([CH2]CC)[O][Sn]([CH2]CC)([CH2]CC)[CH2]CC
inactive: endpoint: mean survival time, dose: 125.0 micrograms/kg/injection, schedule: Q01DX009 (ip), vehicle: saline 95 % of control | endpoint: mean survival time, dose: 250.0 micrograms/kg/injection, schedule: Q01DX009 (ip), vehicle: saline 95 % of control | endpoint: mean survival time, dose: 500.0 micrograms/kg/injection, schedule: Q01DX009 (ip), vehicle: saline 106 % of control | endpoint: mean survival time, dose: 1000.0 micrograms/kg/injection, schedule: Q01DX009 (ip), vehicle: saline 93 % of control

Nc1nc(N)nc(-c2ccccn2)n1
inactive: [1] 112 % of control

C=C(Br)COCC
inactive: [2] 89 % of control

COc1ccc(C(=O)/C=C/c2ccc3cc(OC)c(OC)cc3c2)cc1OC
inactive: endpoint: mean survival time, dose: 25.0 mg/kg/injection, schedule: Q01DX009 (ip), vehicle: water 98 % of control | endpoint: mean survival time, dose: 50.0 mg/kg/injection, schedule: Q01DX009 (ip), vehicle: water 102 % of control

CC[N+]1(C)CCC(CN2c3ccccc3Sc3ccccc32)C1 (centres undefined)
inactive: [3] 93 % of control | endpoint: mean survival time, dose: 200.0 mg/kg/injection, schedule: Q01DX009 (ip), vehicle: saline with Tween-80 98 % of control | [4] 110 % of control

CNC1(Cc2ccc(F)cc2)CCC1
inactive: endpoint: mean survival time, dose: 25.0 mg/kg/injection, schedule: Q01DX009 (ip), vehicle: saline 100 % of control | [1] 102 % of control | [5] 100 % of control

O=P(Nc1ccccc1)(Oc1c(F)c(F)c(F)c(F)c1F)N(CCCl)CCCl (centres undefined)
inactive: endpoint: mean survival time, dose: 62.5 mg/kg/injection, schedule: Q01DX001 (ip), vehicle: other 87 % of control | endpoint: mean survival time, dose: 125.0 mg/kg/injection, schedule: Q01DX001 (ip), vehicle: other 107 % of control | endpoint: mean survival time, dose: 250.0 mg/kg/injection, schedule: Q01DX001 (ip), vehicle: other 96 % of control | endpoint: mean survival time, dose: 500.0 mg/kg/injection, schedule: Q01DX001 (ip), vehicle: other 96 % of control

C[N+]1(C)CCC(OC(=O)C(O)(c2ccccc2)C2CCCC2)C1 (centres undefined)
inactive: endpoint: mean survival time, dose: 3.13 mg/kg/injection, schedule: Q04DX003 (ip), vehicle: saline 87 % of control | endpoint: mean survival time, dose: 6.25 mg/kg/injection, schedule: Q04DX003 (ip), vehicle: saline 98 % of control | endpoint: mean survival time, dose: 12.5 mg/kg/injection, schedule: Q04DX003 (ip), vehicle: saline with Tween-80 100 % of control | endpoint: mean survival time, dose: 12.5 mg/kg/injection, schedule: Q04DX003 (ip), vehicle: saline 90 % of control | endpoint: mean survival time, dose: 25.0 mg/kg/injection, schedule: Q01DX001 (ip), vehicle: saline 104 % of control | endpoint: mean survival time, dose: 25.0 mg/kg/injection, schedule: Q04DX003 (ip), vehicle: saline with Tween-80 94 % of control | endpoint: mean survival time, dose: 25.0 mg/kg/injection, schedule: Q04DX003 (ip), vehicle: saline 103 % of control | endpoint: mean survival time, dose: 50.0 mg/kg/injection, schedule: Q01DX001 (ip), vehicle: saline 106 % of control | endpoint: mean survival time, dose: 50.0 mg/kg/injection, schedule: Q04DX003 (ip), vehicle: saline with Tween-80 103 % of control | [6] 95 % of control | [7] 102 % of control and 105 % of control | endpoint: mean survival time, dose: 100.0 mg/kg/injection, schedule: Q04DX002 (ip), vehicle: saline 97 % of control | [2] 108 % of control | [8] 113 % of control and 88 % of control | endpoint: mean survival time, dose: 200.0 mg/kg/injection, schedule: Q04DX002 (ip), vehicle: saline 112 % of control | endpoint: mean survival time, dose: 400.0 mg/kg/injection, schedule: Q04DX002 (ip), vehicle: saline 104 % of control

COc1cc2c(cc1OC)-c1cc3cc(OC)c(OC)cc3c(C)[n+]1CC2 (tested in a mixture with another compound)
inactive: endpoint: mean survival time, dose: 100.0 mg/kg/injection, schedule: Q04DX003 (ip), vehicle: saline sonified 103 % of control

CCCCN(Cl)CCCC
inactive: endpoint: mean survival time, dose: 25.0 mg/kg/injection, schedule: Q04DX002 (ip), vehicle: saline with Tween-80 92 % of control | endpoint: mean survival time, dose: 50.0 mg/kg/injection, schedule: Q04DX002 (ip), vehicle: saline with Tween-80 92 % of control | [9] 103 % of control

CCC(=O)OC1(c2ccccc2)CCN(C/C=C/c2ccccc2[N+](=O)[O-])CC1
inactive: endpoint: median survival time, dose: 12.5 mg/kg/injection, schedule: Q04DX003 (ip), vehicle: saline with Tween-80 100 % of control | endpoint: median survival time, dose: 25.0 mg/kg/injection, schedule: Q04DX003 (ip), vehicle: saline with Tween-80 88 % of control | endpoint: median survival time, dose: 50.0 mg/kg/injection, schedule: Q04DX003 (ip), vehicle: saline with Tween-80 100 % of control | endpoint: median survival time, dose: 100.0 mg/kg/injection, schedule: Q04DX003 (ip), vehicle: saline with Tween-80 100 % of control

O=C1c2ccccc2C(=O)c2cc(NS(=O)(=O)C(F)(F)F)ccc21
inactive: [7] 96 % of control | endpoint: mean survival time, dose: 200.0 mg/kg/injection, schedule: Q01DX001 (ip), vehicle: saline 100 % of control

c1ccc(-c2ncnc3c2Cc2ccccc2-3)cc1
inactive: endpoint: mean survival time, dose: 100.0 mg/kg/injection, schedule: Q01DX009 (ip), vehicle: saline sonified 94 % of control | endpoint: mean survival time, dose: 200.0 mg/kg/injection, schedule: Q01DX009 (ip), vehicle: saline sonified 100 % of control | endpoint: mean survival time, dose: 400.0 mg/kg/injection, schedule: Q01DX009 (ip), vehicle: saline sonified 98 % of control

CCCCCCCCCCCCCCCCCC[N+]1(C)CCC[N+](C)(CCCCCCCCCCCCCCCCCC)CC1 (centres undefined)
inactive: [9] 98 % of control and 100 % of control | [2] 86 % of control and 108 % of control | [10] 92 % of control and 100 % of control | endpoint: mean survival time, dose: 200.0 mg/kg/injection, schedule: Q04DX003 (ip), vehicle: saline with Tween-80 90 % of control and 104 % of control | [11] 87 % of control and 92 % of control | endpoint: mean survival time, dose: 400.0 mg/kg/injection, schedule: Q04DX003 (ip), vehicle: saline with Tween-80 88 % of control

CO[C@H](C(=O)[C@@H](O)[C@@H](C)O)[C@@H]1Cc2cc3cc(OC4CC(OC5CC(O)C(O)C(C)O5)C(O)C(C)O4)c(C)c(O)c3c(O)c2C(=O)[C@H]1OC1CC(OC2CC(OC3CC(C)(O)C(O)C(C)O3)C(O)C(C)O2)C(O)C(C)O1 (some centres undefined)
inactive: endpoint: mean survival time, dose: 0.13 mg/kg/injection, schedule: Q01DX009 (ip), vehicle: saline 95 % of control and 97 % of control and 101 % of control | endpoint: mean survival time, dose: 0.25 mg/kg/injection, schedule: Q01DX009 (ip), vehicle: saline 95 % of control and 97 % of control and 103 % of control | endpoint: mean survival time, dose: 0.5 mg/kg/injection, schedule: Q01DX009 (ip), vehicle: saline 93 % of control and 100 % of control and 105 % of control | endpoint: mean survival time, dose: 0.5 mg/kg/injection, schedule: Q01DX Z (ip), vehicle: saline 124 % of control | endpoint: mean survival time, dose: 1.0 mg/kg/injection, schedule: Q01DX009 (ip), vehicle: saline 101 % of control and 104 % of control and 107 % of control

CC(=O)NC(C=O)CC(C=O)CO (centres undefined)
inactive: [1] 103 % of control | [6] 107 % of control | [5] 107 % of control | [8] 109 % of control | endpoint: mean survival time, dose: 150.0 mg/kg/injection, schedule: Q04DX003 (ip), vehicle: saline 108 % of control | endpoint: mean survival time, dose: 200.0 mg/kg/injection, schedule: Q01DX009 (ip), vehicle: saline 95 % of control

CCOC(=O)C1(C#N)C(=O)CSC1=Nc1ccccc1Cl (centres undefined)
inactive: endpoint: mean survival time, dose: 25.0 mg/kg/injection, schedule: Q01DX009 (ip), vehicle: saline with Tween-80 90 % of control | endpoint: mean survival time, dose: 50.0 mg/kg/injection, schedule: Q01DX009 (ip), vehicle: saline with Tween-80 91 % of control | [3] 86 % of control | [4] 86 % of control

O=S(=O)(Nc1ccc(Br)cc1)c1ccc(Cl)c(Cl)c1
inactive: [9] 91 % of control | [10] 88 % of control | [11] 88 % of control
